One assay has as its target PD-L1 (Homo sapiens (Human), UniProt Q9NZQ7). Description: PD-L1 whole blood internalization assay. The format is cell-based. The settings on record: 24 HR, PD-L1 expression on CD14+ cells, human interferon γ. The procedure: Example D. PD-L1 Whole Blood Internalization Assay
To determine PD-L1 internalization in human whole blood, normal human blood (Biological Specialty Corp, Colmar. Pa.) was incubated in the presence or absence of a concentration range of test compounds and 1 ng/ml human interferon γ (R&D Systems Inc. Minn. […] Blood was then stained with PD-L1 (MIH1, eBioscience; or BD Biosciences San Jose, Calif.), CD14 (Life Technologies, Carlsbad, Calif.) for 30 minutes in the dark at room temperature. Whole Blood/red cells were lysed/fixed (lysis buffer BD Biosciences) for 5 minutes at 37° C. in the dark and then centrifuged at 1600 RPM for 5 minutes. Cells were resuspended in Stain Buffer (BD Bioscience, San Jose, Calif.) and transferred into 96 well round bottom plates (Corning). Cells were gated on CD14+(BD Biosciences) and PD-L1 expression determined by mean fluorescence intensity (MFI) (BD LSRFortessa™ X-20). IC50 determination was performed by fitting the curve of compound percent inhibition versus the log of the compound concentration using the GraphPad Prism 7.0 software.

Assay [1] deals with PD-L1 aAPC/CHO-K1 cells and Jurkat-PD-1-NFAT effector cells. Kind of assay: Nuclear factor of activated T-cells (NFAT) assay. The format is cell-based. The settings on record: Cricetulus griseus, CHO-K1. The procedure: Example C. Nuclear Factor of Activated T-Cells (NFAT) Assay
PD-L1 aAPC/CHO-K1 cells (Promega) were maintained in F-12 medium with addition of 10% FBS, 200 μg/ml Hygromycin B, 250 μg/ml Geneticin (G418). Jurkat-PD-1-NFAT effector cells (Promega) were cultured in RPMI 1640 medium supplemented with 10% FBS, 100 μg/ml Hygromycin B, 500 μg/ml G418. The culture media of PD-L1 aAPC/CHO-K1 cells were first replaced with assay medium (RPMI1640 medium with 1% FBS). The PD-L1 aAPC/CHO-K1 cells were then added in a white 384-well white clear bottom assay plate (CELLCOAT® Tissue Culture Plates, Greiner Bio-One) at 8000 per well in 10 μL assay medium. Test compounds were prepared by serial dilution in DMSO and 0.8 μL test compounds in DMSO were first transferred to the 384 REMP plate well (Thermofisher) by PlateMate Plus (Thermofisher) followed with addition of 50 μL plating medium. 5 μL compounds in the assay medium were transferred to the cells with 0.4% DMSO in the final assay at 2 μM. After removing the culture media, 10,000 Jurkat-PD-1-NFAT effector cells in 5 μL assay medium was dispensed into each well. The assay plate was incubated at 37° C., 5% CO2 for 24 hours. After the assay plate was equilibrated to room temp for 15 minutes, 20 µL/well of Bio-Glo™ reagent (Promega) were added. After 8 minutes incubation at room temperature, luminescence was read at with Pherastar microplate reader (BMG Labtech). The fold of induction (FOI) was calculated based on the ratio of luminescence normalized to the DMSO wells within each assay plate. The maximum percentage of induction was reported based on the ratio between the highest FOI of each compound and the maximum FOI of control compound within each assay plate. Wells with DMSO were served as the negative controls and wells containing control compound with the highest FOI were used as positive controls. EC50 determination was performed by fitting the curve of percent control activity versus the log of the compound concentration using the GraphPad Prism 6.0 software.

Assay [2] relates to U2OS/PD-L1 cells and Jurkat-PD-1-SHP cells. Description: Src homology region 2 domain-containing phosphatase (SHP) assay. The format is cell-based. The settings on record: Homo sapiens, U2OS. How it is done:
Example B. Src Homology Region 2 Domain-Containing Phosphatase (SHP) Assay
U2OS/PD-L1 cells (DiscoveRx Corporation) were maintained in McCoy's 5A medium with addition of 10% FBS, 0.25 μg/ml Puromycin. After removing the culture media, the cell medium was replaced with assay medium (RPMI1640 medium with 1% FBS). The U2OS/PD-L1 cells were then added in 384-well black clear bottom assay plate (CELLCOAT® Tissue Culture Plates, Greiner Bio-One) at 5000 cells per well in 20 μL assay medium. Test compounds were prepared by serial dilution in DMSO and 125 nL compound were first transferred to the 384 REMP plate well (Thermofisher) by ECHO liquid handler (Labcyte) followed with addition of 27.5 μL assay medium. 5 μL/well compounds in the assay medium were transferred to the cell plate with 0.05% DMSO in the final assay at […]. Jurkat-PD-1-SHP cells (DiscoveRx Corporation) were cultured in RPMI1640 medium supplemented with 10% FBS, 250 μg/ml Hygromycin B, 500 μg/ml G418. After the replacement of culture media with assay medium, 5,000 Jurkat-PD-1-SHP cells in 20 μL were dispensed into each well. The assay plate was incubated at 37° C., 5% CO2 for 2 hours before 2.5 μL PathHunter reagent 1 (DiscoveRx Corporation) were added to each well. The assay plate was shaken for 1 min at 350 rpm in the dark followed with addition of 10 μL PathHunter reagent 2 (DiscoveRx Corporation). Chemiluminescent signal was recorded with TopCount reader (Perkin Elmer) after incubation at room temperature for 1 hour. Wells with DMSO were served as the positive controls and wells containing no cells were used as negative controls. IC50 determination was performed by fitting the curve of percentage of control activity versus the log of the compound concentration using the GraphPad Prism 6.0 software.

Assay [3] has as its target PD-1/PD-L1 protein/protein interaction (recombinant human PD-L1 and human PD-1) (Homo sapiens (Human), UniProt Q9NZQ7). Kind of assay: Homogeneous Time-Resolved Fluorescence (HTRF) PD-1/PD-L1 binding assay. The procedure:
Example A. Homogeneous Time-Resolved Fluorescence (HTRF) PD-1/PD-L1 Binding Assay
The assays were conducted in a standard black 384-well polystyrene plate with a final volume of 20 μL. Inhibitors were first serially diluted in DMSO and then added to the plate wells before the addition of other reaction components. The final concentration of DMSO in the assay was 1%. The assays were carried out at 25° C. in the PBS buffer (pH 7.4) with 0.05% Tween-20 and 0.1% BSA. Recombinant human PD-L1 protein (19-238) with a His-tag at the C-terminus was purchased from AcroBiosystems (PD1-H5229). Recombinant human PD-1 protein (25-167) with Fc tag at the C-terminus was also purchased from AcroBiosystems (PD1-H5257). PD-L1 and PD-1 proteins were diluted in the assay buffer and 10 μL was added to the plate well. Plates were centrifuged and proteins were preincubated with inhibitors for 40 minutes. The incubation was followed by the addition of 10 μL of HTRF detection buffer supplemented with Europium cryptate-labeled anti-human IgG (PerkinElmer-AD0212) specific for Fc and anti-His antibody conjugated to SureLight®-Allophycocyanin (APC, PerkinElmer-AD0059H). After centrifugation, the plate was incubated at 25° C. for 60 min. before reading on a PHERAstar FS plate reader (665 nm/620 nm ratio). Final concentrations in the assay were—3 nM PD1, 10 nM PD-L1, 1 nM europium anti-human IgG and 20 nM anti-His-Allophycocyanin. IC50 determination was performed by fitting the curve of percent control activity versus the log of the inhibitor concentration using the GraphPad Prism 5.0 software.
A general note: In TR-FRET formats the signal depends on donor and acceptor labels being close together.

As usually defined, the IC50 is the concentration needed to halve the response being measured. In general, EC50 refers to the concentration needed to bring the measured effect to its halfway point.

PD-L1, sequence (Q9NZQ7 19-290): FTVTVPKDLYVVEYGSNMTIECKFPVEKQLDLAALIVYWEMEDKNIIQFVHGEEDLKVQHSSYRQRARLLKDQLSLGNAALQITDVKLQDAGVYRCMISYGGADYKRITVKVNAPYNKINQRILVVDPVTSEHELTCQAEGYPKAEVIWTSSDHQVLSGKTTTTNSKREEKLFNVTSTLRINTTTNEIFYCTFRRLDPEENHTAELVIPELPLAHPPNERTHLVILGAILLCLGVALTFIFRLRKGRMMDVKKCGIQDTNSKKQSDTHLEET
PD-1/PD-L1 protein/protein interaction (recombinant human PD-L1 and human PD-1), sequence (Q9NZQ7 19-238): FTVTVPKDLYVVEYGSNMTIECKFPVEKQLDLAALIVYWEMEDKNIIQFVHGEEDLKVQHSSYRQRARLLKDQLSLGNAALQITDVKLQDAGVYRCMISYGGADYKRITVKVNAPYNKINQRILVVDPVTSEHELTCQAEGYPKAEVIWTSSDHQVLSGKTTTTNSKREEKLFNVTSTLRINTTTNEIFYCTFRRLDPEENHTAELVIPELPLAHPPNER

As for `Cn1c(C(=O)Nc2cccc(-c3cccc(NC(=O)c4nc5c(n4C)CCN(C4CCC(O)CC4)C5)c3Cl)c2Cl)nc2c1CCN(CCC13CCC(C(=O)O)(CC1)C3)C2` (single isomer, unassigned) [60 (compound 1), 4-(2-(2-((2,2′-dichloro-3′-(5-(4-hydroxycyclohexyl)-1-methyl-4,5,6,7-tetrahydro-1H-imidazo[4,5-c]pyridine-2-carboxamido)-[1,1′-biphenyl]-3-yl)carbamoyl)-1-methyl-1,4,6,7-tetrahydro-5H-imidazo[4,5-c]pyridin-5-yl)ethyl)bicyclo[2.2.1]heptane-1-carboxylic Acid], the IC50 is 10 to 100 nM at PD-L1, no more than 10 nM in assay [2] and no more than 5 nM in assay [3]. Besides, the EC50 in assay [1] was no more than 10 nM.

`Cn1c(C(=O)Nc2cccc(-c3cccc(NC(=O)c4nc5c(n4C)CCN(C4CCN(C(N)=O)CC4)C5)c3Cl)c2Cl)nc2c1CCN(CCC13CCC(C(=O)O)(CC1)C3)C2` [Example 7, 4-(2-(2-((3′-(5-(1-carbamoylpiperidin-4-yl)-1-methyl-4,5,6,7-tetrahydro-1H-imidazo[4,5-c]pyridine-2-carboxamido)-2,2′-dichloro-[1,1′-biphenyl]-3-yl)carbamoyl)-1-methyl-1,4,6,7-tetrahydro-5H-imidazo[4,5-c]pyridin-5-yl)ethyl)bicyclo[2.2.1]heptane-1-carboxylic acid]: the IC50 on PD-L1 was 10 to 100 nM; in assay [3], no more than 5 nM. This compound also registered an EC50 in assay [1] of 10 to 100 nM.

On to `Cc1c(NC(=O)c2nc3c(n2C)CCN(C2CCOCC2)C3)cccc1-c1cccc(NC(=O)c2nc3c(n2C)CCN(CCC24CCC(C(=O)O)(CC2)C4)C3)c1Cl` [Example 28, 4-(2-(2-((2-chloro-2′-methyl-3′-(1-methyl-5-(tetrahydro-2H-pyran-4-yl)-4,5,6,7-tetrahydro-1H-imidazo[4,5-c]pyridine-2-carboxamido)-[1,1′-biphenyl]-3-yl)carbamoyl)-1-methyl-1,4,6,7-tetrahydro-5H-imidazo[4,5-c]pyridin-5-yl)ethyl)bicyclo[2.2.1]heptane-1-carboxylic acid], for which the IC50 against PD-L1 was 10 to 100 nM; in assay [3] it was no more than 5 nM. The same compound displayed an EC50 in assay [1] of 10 to 100 nM.

With `Cc1c(NC(=O)c2nc3c(n2C)CCN(C[C@H](C)O)C3)cccc1-c1cccc(NC(=O)c2nc3c(n2C)CCN(CCC24CCC(C(=O)O)(CC2)C4)C3)c1Cl` [Example 32, (S)-4-(2-(2-((2-chloro-3′-(5-(2-hydroxypropyl)-1-methyl-4,5,6,7-tetrahydro-1H-imidazo[4,5-c]pyridine-2-carboxamido)-2′-methyl-[1,1′-biphenyl]-3-yl)carbamoyl)-1-methyl-1,4,6,7-tetrahydro-5H-imidazo[4,5-c]pyridin-5-yl)ethyl)bicyclo[2.2.1]heptane-1-carboxylic acid], the half-inhibitory concentration (IC50) at PD-L1 is 10 to 100 nM; in assay [3], no more than 5 nM. This compound showed an EC50 in assay [1] of 10 to 100 nM.

Take `Cc1c(NC(=O)c2nc3c(n2C)CCN(CCO)C3)cccc1-c1cccc(NC(=O)c2nc3c(n2C)CCN(CCC24CCC(C(=O)O)(CC2)C4)C3)c1Cl` [Example 33, 4-(2-(2-((2-chloro-3′-(5-(2-hydroxyethyl)-1-methyl-4,5,6,7-tetrahydro-1H-imidazo[4,5-c]pyridine-2-carboxamido)-2′-methyl-[1,1′-biphenyl]-3-yl)carbamoyl)-1-methyl-1,4,6,7-tetrahydro-5H-imidazo[4,5-c]pyridin-5-yl)ethyl)bicyclo[2.2.1]heptane-1-carboxylic acid]: the values for the half-maximal inhibitory concentration (IC50) (against PD-L1; in assay [3]) were 10 to 100 nM and no more than 5 nM, respectively. In addition, the EC50 in assay [1] lay in the range of 10 to 100 nM.

Regarding `Cn1c(C(=O)Nc2cccc(-c3cccc(NC(=O)c4nc5c(n4C)CCN(CCC46CCC(C(=O)O)(CC4)C6)C5)c3Cl)c2Cl)nc2c1CCN(CCCCC(=O)O)C2` [Example 63, 4-(2-(2-((3′-(5-(4-carboxybutyl)-1-methyl-4,5,6,7-tetrahydro-1H-imidazo[4,5-c]pyridine-2-carboxamido)-2,2′-dichloro-[1,1′-biphenyl]-3-yl)carbamoyl)-1-methyl-1,4,6,7-tetrahydro-5H-imidazo[4,5-c]pyridin-5-yl)ethyl)bicyclo[2.2.1]heptane-1-carboxylic acid], the IC50 on PD-L1 was 10 to 100 nM; in assay [3] it was no more than 5 nM. In assay [1], this compound returned an EC50 of 10 to 100 nM.

As for `CN(C)C(=O)CCCCN1CCc2c(nc(C(=O)Nc3cccc(-c4cccc(NC(=O)c5nc6c(n5C)CCN(CCC57CCC(C(=O)O)(CC5)C7)C6)c4Cl)c3Cl)n2C)C1` [Example 64, 4-(2-(2-((2,2′-dichloro-3′-(5-(5-(dimethylamino)-5-oxopentyl)-1-methyl-4,5,6,7-tetrahydro-1H-imidazo[4,5-c]pyridine-2-carboxamido)-[1,1′-biphenyl]-3-yl)carbamoyl)-1-methyl-1,4,6,7-tetrahydro-5H-imidazo[4,5-c]pyridin-5-yl)ethyl)bicyclo[2.2.1]heptane-1-carboxylic Acid], the IC50 on PD-L1 is 10 to 100 nM; in assay [3] it was no more than 5 nM. The EC50 in assay [1] was no more than 10 nM.

(Values after patent US10618916B2, “Heterocyclic compounds as immunomodulators” (Incyte Corporation, priority 2018, dated 2020).)
